Results on 20 compounds are retold here after ChEMBL document CHEMBL6153067, “Transition State Analogs of Human DNPH1 Reveal Two Electrophile Migration Mechanisms” (J Med Chem, 2025).

pIC50, pKd, pKi: −log10 of the molar value. Active and inactive are the calls of the source. No cut-off for these calls is given here. A value given as a limit tells only on which side of the number the result lay.

Experiment [1] deals with T1, 5-hydroxymethyl-dUMP N-hydrolase (Homo sapiens, UniProt O43598).
T1 sequence (O43598 whole entry): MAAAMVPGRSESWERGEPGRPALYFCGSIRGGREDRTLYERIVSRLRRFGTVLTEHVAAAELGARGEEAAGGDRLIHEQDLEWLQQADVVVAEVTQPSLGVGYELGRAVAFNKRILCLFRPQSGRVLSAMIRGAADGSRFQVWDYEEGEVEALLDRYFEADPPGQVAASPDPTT
Briefly: Competitive inhibition of wild-type truncated human DNPH1 extracted from Escherichia coli BL21DE3 using hmdUMP as substrate preincubated for 30 mins followed by substrate addition measured after 60 mins in presence of NADH.

Experiment [2] deals with T1, 5-hydroxymethyl-dUMP N-hydrolase. Nature of the experiment: Binding affinity to DNPH1 (unknown origin) assessed as equilibrium constant.
Experiment [3] has the same target. Briefly: Binding affinity to wild-type truncated human DNPH1 extracted from Escherichia coli BL21DE3 assessed as dissociation constant by ITC analysis.
For experiment [4] the target is unchanged. Nature of the experiment: Inhibition of wild-type truncated human DNPH1 extracted from Escherichia coli BL21DE3 assessed as decrease in hmdUMP hydrolysis preincubated for 30 mins followed by hmdUMP addition measured after 30 mins in presence of NADH.
Experiment [5] has as its target T2, 5-hydroxymethyl-dUMP N-hydrolase (Homo sapiens) (UniProt O43598).
T2 sequence (whole entry): T1 sequence (O43598 whole entry)
The conditions noted are these: dose 1.0 mM, time 30.0 min.

With `O=c1[nH]c(CN2C[C@H](COP(=O)(O)O)[C@@H](O)C2)c(CO)c(=O)[nH]1`, in experiment [1], the negative-log Ki (pKi) was less than 4.30.
In the case of `O=P(O)(O)OC[C@H]1CN(Cc2ccc(F)nc2F)C[C@@H]1O`, the pKi in experiment [1] is 4.59.
Take `O=c1[nH]c(=O)n([C@H]2C[C@H](O)[C@@H](CP(=O)(O)O)O2)cc1CO`: the pKd in experiment [2] was 5.20.
Turning to `Nc1nc2c(CN3C[C@H](COP(=O)(O)O)[C@@H](O)C3)c[nH]c2c(=O)[nH]1`, the negative-log Ki (pKi) in experiment [1] was 5.19.
Turning to `O=P(O)(O)OC[C@H]1CNC[C@@H]1O`, in experiment [3], the pKd was 5.89. The pKi in experiment [1] is 5.48.
In the case of `COc1nc(OC)c(CN2C[C@H](COP(=O)(O)O)[C@@H](O)C2)cc1F`, the pKi in experiment [1] was 4.91.
Turning to `O=c1[nH]c(=O)n([C@@H]2O[C@H](COP(=O)(O)O)[C@@H](O)[C@H]2O)cc1CO`, the negative logarithm of the IC50 (pIC50) in experiment [4] was 5.89. For the same compound, the inhibition result in experiment [5] is “Active; Potent Than Ump”. Besides, the pKd in experiment [1] is 6.22.
As for `O=P(O)(O)OC[C@H]1CN(Cc2cncc(CO)c2)C[C@@H]1O`, the negative-log Ki (pKi) in experiment [1] was 5.44.
As to `O=c1[nH]c(=O)n([C@@H]2O[C@H](COP(=O)(O)O)[C@@H](O)[C@@H]2F)cc1CO`, the negative logarithm of the IC50 (pIC50) in experiment [4] was 5.82. Further, the pKd in experiment [3] was 6.37; in experiment [1], 6.24. The inhibition entry in experiment [5] was “Active; Potent Than Ump”.
Regarding `O=P(O)(O)OC[C@H]1CN(Cc2ccccc2)C[C@@H]1O`, the negative-log Ki (pKi) in experiment [1] was less than 4.30.
Same read-out and setting: next, `Nc1ncnc2c(CN3C[C@H](COP(=O)(O)O)[C@@H](O)C3)c[nH]c12`: 5.55; `O=c1cc(CN2C[C@H](COP(=O)(O)O)[C@@H](O)C2)[nH]c(=O)[nH]1`: 5.29.
Consider `O=c1[nH]c(=O)n([C@@H]2O[C@H](COP(=O)(O)O)[C@@H](O)[C@@H]2O)cc1CO`, for which, in experiment [4], the negative logarithm of the IC50 (pIC50) was less than 4.00. The pKd in experiment [1] is less than 4.30.
For the compound `O=P(O)(O)OC[C@H]1NC[C@H](O)[C@@H]1O`, in experiment [1], the pKi is less than 4.30.
With `O=P(O)(O)OC[C@H]1CNC[C@@H]1OP(=O)(O)O`, the pKi in experiment [1] is less than 4.30.
The same measure, in the same setting: as for `O=P(O)(O)OC[C@H]1NCC[C@@H]1O`, the figure is less than 4.30.
Still for that read-out and setting: as for `O=c1[nH]cccc1CN1C[C@H](COP(=O)(O)O)[C@@H](O)C1`, the figure is 4.43; as for `O=c1[nH]cc(CN2C[C@H](COP(=O)(O)O)[C@@H](O)C2)cc1CO`, 6.21; as for `O=P(O)(O)OC[C@H]1CN(Cc2cccnc2)C[C@@H]1O`, 4.68.
Same read-out and setting: next, `O=P(O)(O)OC[C@H]1CN(Cc2cc(CO)c(F)nc2F)C[C@@H]1O`: 5.29.
